The experiment concerns the target T1, interaction between TGFR (RI) and FKPB12 (Homo sapiens, UniProt P62942).
T1 construct: expressed in transfected cells; host or cells: 293A cells
Put plainly: Mammalian reverse two-hybrid system, GFP reporter, stable cell line (pCMV-tetOP-AD-RI-IRES-BD-FKBP12). The class given is cell-based. The note with it: 293A cells; 1 μg/ml Dox, 48 hrs; FK506 100 nM, AG1478 2.5 μM; FIG. 2.

T1 sequence (P62942 whole entry): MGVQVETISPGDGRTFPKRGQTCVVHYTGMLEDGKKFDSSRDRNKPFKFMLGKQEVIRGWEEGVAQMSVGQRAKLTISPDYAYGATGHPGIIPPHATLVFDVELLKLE
Method: Green Fluorescence Protein (GFP). To directly assay the expression of GFP, cells were cultured in 96 or 384 well low fluorescence assay plates with 100 or 50 μl of DMEM medium. Dox and agents were added at concentrations described below. Following 48-hrs of treatment, the medium in each well was replaced with PBS. The intensity of GFP was directly measured at 485 mn excitation and 525 nm emission with a fluorescence multi-well plate reader (CytoFluor II, PerSeptive Biosystems or Wallac Victor V Stacker, Perkin Elmer).
The mammalian reverse two-hybrid system of the present invention was tested with this protein-protein interaction pair to evaluate if the effect of FK506 on disrupting the interaction can be detected. To achieve this, the cytoplasmic domain of the TGFR (RI) was fused with the transcriptional activation domain (AD) of VP16 and FKBP12 was fused with the Gal4 DNA binding domain (BD).
A stable cell line harboring the construct TetR-KRAB, GFP reporter construct, and the construct pCMV-tetOP-AD-RI-IRES-BD-FKBP12 was selected to evaluate the effect of drug molecule FK506 on the interaction between TGFR (RI) and FKPB12. The intensity of GFP expression was monitored following 48 hrs of treatment of the cells with the inducer Dox and the agent FK506.
Expression of the GFP reporter gene was evaluated following the treatment. […]

On to `COc1cc2ncnc(Nc3cccc(Cl)c3)c2cc1OC` [AG1478], for which the “Dox induced GFP expression (GFP reporter gene)” value is “no effect”.
